In US6610729B1, “Hydroxamic acid derivatives and medicinal utilization thereof” (Mitsubishi Pharma Corporation, priority 1998, dated 2003) one finds IC50 and solubility data, which are given here for two molecules.

SMILES strings stand for the structures. Bounds are passed on as bounds.

For data set [1], the system named is release of TNF α from THP-1 cells. The data set is described as follows: Inhibitory activity of TNF α release from THP-1 cells (LPS, ELISA). Type of data set: cell-based. The settings on record: Homo sapiens, 3 hr, 37° C., TNF α by ELISA. Here is the method:
The inhibitory effect of each compound (compounds of Examples 1, 2, 3, 6, 35, 39 and 44) on the release of TNF α from THP-1 cells which are monocyte cultured cells [see Nature 370, 218-220 (1994)] was investigated.
The THP-1 cells were suspended to a concentration of 1×10 ^6 cells/ml in RPMI1640 medium supplemented with 10% fetal calf serum (FCS) and dispensed by 100 μl. A 2 μg/ml LPS was prepared with RPMI1640 medium supplemented with 10% FCS. Each compound (dissolved in dimethyl sulfoxide) was diluted 500-fold with the LPS solution.
The diluted solutions of these compounds were added to the dispensed cell suspensions by 100 μl and allowed for 3 hr to react under the conditions of 37° C., 5% CO2. After the completion of the reaction, the reaction mixture was centrifuged and the culture supernatant was collected. The TNF α amount was quantitatively measured by ELISA (enzyme-linked immunosorbent assay). The TNF α release inhibitory effect by each compound was calculated from the proportion of released TNF α amount of the compound addition group relative to that of the compound non-addition group.

Data set [2] relates to release of TNF α from LPS treated human whole blood. Nature of the data set: Inhibitory activity of TNF α release from LPS treated human whole blood (ELISA). The note with it: LPS treated human whole blood diluted 4-fold, 24 hr, 37° C., TNF α by ELISA. Format: cell-based. Here is the method:
The inhibitory effect of each compound (compounds of Examples 2, 6, 7, 10, 11, 37, 147, 231 and 245) on the release of TNF α from LPS treated human whole blood [see: Lymphokine Res 8, 141-146 (1989)] was investigated.
Human whole blood was diluted 4-fold with RPMI1640 medium supplemented with 10% FCS. The diluted blood was dispensed to a 96 multi-well plate by 100 μl and equilibrated under the conditions of 37° C., 5% CO2. LPS (2 μg/ml) was prepared with RPMI1640 medium supplemented with 10% FCS and a culture broth prepared by dissolving each compound (dissolved in dimethyl sulfoxide) in the LPS solution was added by 100 μl/well (final concentrated of dimethyl sulfoxide 0.1%), which was followed by incubation for 24 hr (37° C., 5% CO2). After the incubation, the reaction mixture was centrifuged (1,500 rpm, 5 min). The culture supernatant (40 μl/well) was collected, and TNF α amount in the supernatant was quantitatively measured by ELISA. The TNF α release inhibitory effect by each compound was calculated from the proportion of release TNF α amount of the compound addition group relitive to that of the compound non-addition group.
For orientation: An ELISA detects its analyte on a solid surface through an enzyme-linked reagent.

Data set [3] is described as follows: Solubility in saline (0.9% aqueous sodium chloride solution) at 25° C. The settings on record: saline or isotonic. Type of data set: physicochemical. As for the experimental part:
The solubility of the Example compounds of the present invention in saline (0.9% aqueous sodium chloride solution) at 25° C. was measured.

For the molecule `CC(C)C[C@@H](C(=O)N[C@@H](Cc1ccc(OS(=O)(=O)[O-])cc1)C(=O)c1ccco1)C(CN1C(=O)c2ccccc2C1=O)C(=O)NO.[Na+]` (single isomer, unassigned) [Example 6, Sodium Salt of 3(R)-[1(S)-(2-furyl)carbonyl-2-[4-(hydroxysulfonyloxy)phenyl]]ethylcarbamoyl-5-methyl-2(R or S)-phthalimidomethylhexanohydroxamic Acid], the IC50 in data set [1] was 660 nM; in data set [2], 1390 nM. Also, the solubility in data set [3] was > 20 mg/mL.

As to `CC(C)C[C@@H](C(=O)N[C@@H](Cc1ccccc1)C(=O)c1ccc(OCCN(C)C)cc1)C(CN1C(=O)c2ccccc2C1=O)C(=O)NO.Cl` (single isomer, unassigned) [Example 2, 3(R)-[1(S)-[4-(2-Dimethylaminoethoxy)benzoyl]-2-phenyl]ethylcarbamoyl-5-methyl-2(R or S)-phthalimidomethylhexanohydroxamic Acid Hydrochloride], the IC50 in data set [1] turned out to be 200 nM; in data set [2], 650 nM. Also, the solubility in data set [3] was > 5 mg/mL.

The term IC50 denotes the concentration needed to halve the response being measured. Read a high IC50 as weaker potency. One may read the solubility as the dissolved amount per volume that the medium holds. Higher therefore signals much dissolved substance.
